{"source": "patent US20260159536A1", "about": "“AKR1C3-ACTIVATED DNA ALKYLATING AGENT, AND MEDICAL APPLICATION THEREOF” (ASCENTAWITS PHARMACEUTICALS, LTD., priority 2021, published 2026)", "assay": "in vitro", "details": "for % Remaining: with NADPH and AST-3021", "protocol": "(1) Compound A for test, progesterone positive control, and 100 mM stock solutions of AST-3021 inhibitor were prepared and stored in the freezer (−10° C. to −30° C.).\n1) Negative control group: at different time points (0 and 60 min), 30 μL/well of hepatocyte cytosol suspension containing 7.5 μM of sample for test was distributed in a 96-well plate. Three replicate wells were prepared in parallel.\n2) Positive control group: at different time points (0, 5, 15, 30, 45 and 60 min), 30 μL/well of hepatocyte cytosol suspension containing 7.5 μM of the positive control was distributed in a 96-well plate. Three replicate wells were prepared in parallel.\n3) Normal reaction group: at different time points (0, 5, 15, 30, 45 and 60 min), 30 μL/well of hepatocyte cytosol suspension containing 7.5 μM of sample for test was distributed in a 96-well plate. Three replicate wells were prepared in parallel.\n4) Inhibition reaction group: at different time points (0, 5, 15, 30, 45 and 60 min), 30 μL/well of hepatocyte cytosol suspension containing […] of sample for test and 4.5 μM of the inhibitor was distributed in a 96-well plate. Three replicate wells were prepared in parallel.\n6) 0 min samples: after 150 μL/well of acetonitrile containing the internal standard was added, then 15 μL/well of pre-heated NADPH working solution was added to the samples of normal reaction group, inhibition reaction group and positive control group, and 15 μL/well of pre-heated potassium phosphate buffer was added to the samples of negative control group.\n7) Other samples (5, 15, 30, 45 and 60 min): for normal reaction group, inhibition reaction group and positive control group, 15 μL/well of pre-heated NADPH working solution was added to start the reaction; for negative control group, 15 μL/well of pre-heated potassium phosphate buffer was added. The reaction plates were then continued to incubate in a 37° C. water bath and the reactions were stopped by the addition of 150 μL/well of stop solution at the corresponding time points (5, 15, 30, 45 and 60 min).\nThe concentration of analyte in each sample was expressed as a peak area ratio (peak area analyte/peak areainternal standard), then the peak area ratio at 0 min was used as a reference to calculate the % Remaining at each time point of the incubation, and the ln logarithmic value of the % Remaining was linearly fitted to the incubation time and the half-life was calculated according to the following formula.\nIn the absence of AST-3021, 5 μM of progesterone was co-incubated with 2 mM of NADPH and 1 mg/mL of hepatocyte cytosol for 0-60 min as a positive control."}
{"compound": "O=[N+]([O-])c1ccc(C(OP(=O)(N2CC2)N2CC2)C(F)(F)F)cc1Oc1ccc(-c2ccc(F)cc2)c(F)c1", "note": "(racemic) [Compound A]", "values": [{"measurement": "Metabolic parameter k", "setting": "monkey, 2 mM NADPH, no AST-3021 (normal reaction / positive control group), 5 μM", "value": 0.0046}, {"measurement": "average % Remaining", "setting": "monkey, 2 mM NADPH, no AST-3021 (normal reaction / positive control group), 5 μM, 0 min", "value": 100.00, "unit": "%"}, {"measurement": "average % Remaining", "setting": "monkey, 2 mM NADPH, no AST-3021 (normal reaction / positive control group), 5 μM, 5 min", "value": 98.89, "unit": "%"}, {"measurement": "average % Remaining", "setting": "monkey, 2 mM NADPH, no AST-3021 (normal reaction / positive control group), 5 μM, 15 min", "value": 94.52, "unit": "%"}, {"measurement": "average % Remaining", "setting": "monkey, 2 mM NADPH, no AST-3021 (normal reaction / positive control group), 5 μM, 30 min", "value": 89.81, "unit": "%"}, {"measurement": "average % Remaining", "setting": "monkey, 2 mM NADPH, no AST-3021 (normal reaction / positive control group), 5 μM, 45 min", "value": 83.43, "unit": "%"}, {"measurement": "average % Remaining", "setting": "monkey, 2 mM NADPH, no AST-3021 (normal reaction / positive control group), 5 μM, 60 min", "value": 73.28, "unit": "%"}, {"measurement": "Metabolic parameter k", "setting": "monkey, negative control group (no NADPH, no AST-3021), 5 μM", "value": 0.0040}, {"measurement": "average % Remaining", "setting": "monkey, negative control group (no NADPH, no AST-3021), 5 μM, 0 min", "value": 100.00, "unit": "%"}, {"measurement": "average % Remaining", "setting": "monkey, negative control group (no NADPH, no AST-3021), 5 μM, 60 min", "value": 78.57, "unit": "%"}, {"measurement": "average % Remaining", "setting": "mouse, 60 min, no NADPH, no AST-3021", "value": 83.01, "unit": "%"}, {"measurement": "average % Remaining", "setting": "mouse, 60 min, with NADPH, no AST-3021", "value": 88.89, "unit": "%"}, {"measurement": "% Remaining", "setting": "mouse", "value": 74.94, "unit": "%"}, {"measurement": "Metabolic parameter k", "setting": "mouse, 2 mM NADPH + 3 μM AST-3021 (inhibition reaction group), 5 μM", "value": 0.0041}, {"measurement": "average % Remaining", "setting": "mouse, 2 mM NADPH + 3 μM AST-3021 (inhibition reaction group), 5 μM, 0 min", "value": 100.00, "unit": "%"}, {"measurement": "average % Remaining", "setting": "mouse, 2 mM NADPH + 3 μM AST-3021 (inhibition reaction group), 5 μM, 5 min", "value": 90.76, "unit": "%"}, {"measurement": "average % Remaining", "setting": "mouse, 2 mM NADPH + 3 μM AST-3021 (inhibition reaction group), 5 μM, 15 min", "value": 87.29, "unit": "%"}, {"measurement": "average % Remaining", "setting": "mouse, 2 mM NADPH + 3 μM AST-3021 (inhibition reaction group), 5 μM, 30 min", "value": 85.00, "unit": "%"}, {"measurement": "average % Remaining", "setting": "mouse, 2 mM NADPH + 3 μM AST-3021 (inhibition reaction group), 5 μM, 45 min", "value": 82.33, "unit": "%"}, {"measurement": "average % Remaining", "setting": "mouse, 2 mM NADPH + 3 μM AST-3021 (inhibition reaction group), 5 μM, 60 min", "value": 74.94, "unit": "%"}, {"measurement": "Metabolic parameter k", "setting": "mouse, 2 mM NADPH, no AST-3021 (normal reaction / positive control group), 5 μM", "value": 0.0014}, {"measurement": "average % Remaining", "setting": "mouse, 2 mM NADPH, no AST-3021 (normal reaction / positive control group), 5 μM, 0 min", "value": 100.00, "unit": "%"}, {"measurement": "average % Remaining", "setting": "mouse, 2 mM NADPH, no AST-3021 (normal reaction / positive control group), 5 μM, 5 min", "value": 99.18, "unit": "%"}, {"measurement": "average % Remaining", "setting": "mouse, 2 mM NADPH, no AST-3021 (normal reaction / positive control group), 5 μM, 15 min", "value": 109.17, "unit": "%"}, {"measurement": "average % Remaining", "setting": "mouse, 2 mM NADPH, no AST-3021 (normal reaction / positive control group), 5 μM, 30 min", "value": 95.86, "unit": "%"}, {"measurement": "average % Remaining", "setting": "mouse, 2 mM NADPH, no AST-3021 (normal reaction / positive control group), 5 μM, 45 min", "value": 95.38, "unit": "%"}, {"measurement": "average % Remaining", "setting": "mouse, 2 mM NADPH, no AST-3021 (normal reaction / positive control group), 5 μM, 60 min", "value": 88.89, "unit": "%"}, {"measurement": "Metabolic parameter k", "setting": "mouse, negative control group (no NADPH, no AST-3021), 5 μM", "value": 0.0031}, {"measurement": "average % Remaining", "setting": "mouse, negative control group (no NADPH, no AST-3021), 5 μM, 0 min", "value": 100.00, "unit": "%"}, {"measurement": "average % Remaining", "setting": "mouse, negative control group (no NADPH, no AST-3021), 5 μM, 60 min", "value": 83.01, "unit": "%"}, {"measurement": "average % Remaining", "setting": "rat, 60 min, no NADPH, no AST-3021", "value": 68.42, "unit": "%"}, {"measurement": "average % Remaining", "setting": "rat, 60 min, with NADPH, no AST-3021", "value": 71.72, "unit": "%"}, {"measurement": "% Remaining", "setting": "rat", "value": 63.81, "unit": "%"}, {"measurement": "Metabolic parameter k", "setting": "rat, 2 mM NADPH + 3 μM AST-3021 (inhibition reaction group), 5 μM", "value": 0.0068}, {"measurement": "average % Remaining", "setting": "rat, 2 mM NADPH + 3 μM AST-3021 (inhibition reaction group), 5 μM, 0 min", "value": 100.00, "unit": "%"}, {"measurement": "average % Remaining", "setting": "rat, 2 mM NADPH + 3 μM AST-3021 (inhibition reaction group), 5 μM, 5 min", "value": 88.10, "unit": "%"}, {"measurement": "average % Remaining", "setting": "rat, 2 mM NADPH + 3 μM AST-3021 (inhibition reaction group), 5 μM, 15 min", "value": 86.23, "unit": "%"}, {"measurement": "average % Remaining", "setting": "rat, 2 mM NADPH + 3 μM AST-3021 (inhibition reaction group), 5 μM, 30 min", "value": 83.84, "unit": "%"}, {"measurement": "average % Remaining", "setting": "rat, 2 mM NADPH + 3 μM AST-3021 (inhibition reaction group), 5 μM, 45 min", "value": 78.06, "unit": "%"}, {"measurement": "average % Remaining", "setting": "rat, 2 mM NADPH + 3 μM AST-3021 (inhibition reaction group), 5 μM, 60 min", "value": 63.81, "unit": "%"}, {"measurement": "Metabolic parameter k", "setting": "rat, 2 mM NADPH, no AST-3021 (normal reaction / positive control group), 5 μM", "value": 0.0053}, {"measurement": "average % Remaining", "setting": "rat, 2 mM NADPH, no AST-3021 (normal reaction / positive control group), 5 μM, 0 min", "value": 100.00, "unit": "%"}, {"measurement": "average % Remaining", "setting": "rat, 2 mM NADPH, no AST-3021 (normal reaction / positive control group), 5 μM, 5 min", "value": 90.07, "unit": "%"}, {"measurement": "average % Remaining", "setting": "rat, 2 mM NADPH, no AST-3021 (normal reaction / positive control group), 5 μM, 15 min", "value": 90.26, "unit": "%"}, {"measurement": "average % Remaining", "setting": "rat, 2 mM NADPH, no AST-3021 (normal reaction / positive control group), 5 μM, 30 min", "value": 84.80, "unit": "%"}, {"measurement": "average % Remaining", "setting": "rat, 2 mM NADPH, no AST-3021 (normal reaction / positive control group), 5 μM, 45 min", "value": 81.99, "unit": "%"}, {"measurement": "average % Remaining", "setting": "rat, 2 mM NADPH, no AST-3021 (normal reaction / positive control group), 5 μM, 60 min", "value": 71.72, "unit": "%"}, {"measurement": "Metabolic parameter k", "setting": "rat, negative control group (no NADPH, no AST-3021), 5 μM", "value": 0.0063}, {"measurement": "average % Remaining", "setting": "rat, negative control group (no NADPH, no AST-3021), 5 μM, 0 min", "value": 100.00, "unit": "%"}, {"measurement": "average % Remaining", "setting": "rat, negative control group (no NADPH, no AST-3021), 5 μM, 60 min", "value": 68.42, "unit": "%"}]}
